From patent US12048734B2, “Bioactive peptides and methods of use thereof” (OP-T LLC, priority 2020, dated 2024)

Legend:
[1] = NDA 022150; cited from earlier work
[2] = Single dose dog study focused on cardiovascular effects, 30-minute IV infusion; assay type: in vivo, dogs
Experimental: Since some of the clinical signs were consistent with a drop in blood pressure, a single dose dog study was done, giving doses of 0.3, 1 or 100 mg/kg by a 30-minute IV infusion, and focused on cardiovascular effects. […] The 100 mg/kg group had much more severe clinical observations compared to 1 mg/kg. These effects were associated with decreases in blood pressure and heart rate for the dogs treated with 100 mg/kg. The blood pressure and heart rate returned to normal by 1 hour after end of infusion.

[3] = 8-week GLP repeat-dose toxicity study, 30-minute IV infusion, dogs; assay type: in vivo
Experimental: Rats and dogs were treated once a week for 8-weeks, by 30-minute IV infusions. The PK of OPT101 was also determined following the first and last dose in each study.

[4] = 8-week GLP repeat-dose toxicity study, 30-minute IV infusion, rats; assay type: in vivo
Experimental: Due to these adverse effects in the rats and dogs after a bolus IV injection, the administration of OPT101 was changed to IV infusion over 30 minutes for the definitive GLP toxicity studies. Rats and dogs were treated once a week for 8-weeks, by 30-minute IV infusions. The PK of OPT101 was also determined following the first and last dose in each study. […] The no observable adverse effect level (NOAEL) for OPT101 was considered to be the […] level. […] Due to the incidence and severity of the infusion reactions, the clinical signs were considered adverse at 100 and 400 mg/kg, but because of the lower incidence and severity at 10 mg/kg, the effects at the 10 mg/kg were considered non-adverse.

[5] = Single bolus IV dose histamine / immune mediator study in rats
[6] = system: bacterial mutation; assay: Standard reverse bacterial mutation assay (Ames assay)
From the text: OPT101 was negative in the standard reverse bacterial mutation assay (Ames assay).

[7] = Preliminary toxicity study, single IV bolus, rats; assay type: in vivo; conditions: 50 or 100 mg/kg bolus IV injection
Experimental: (§1) In a preliminary toxicity study rats and dogs were given a single dose of OPT 101 as an IV bolus. […] When OPT101 was administered to beagle dogs at 50 or 100 mg/kg by bolus IV injection OPT101 was not tolerated due to adverse clinical signs, including prostration, slight salivation, decreased activities, purple or red skin colored in the abdomen ventral, lateral ears or conjunctiva(s), lips, or periorbital, soft stool, medium food-like, red/brown, or small and frothy vomitus, increased respiratory rate, and labored breathing. Clinical pathology effects included increases in leukocyte count, erythrocyte and platelet counts.

[8] = Preliminary toxicity study, single IV bolus, beagle dogs; assay type: in vivo
Experimental: as §1

[9] = system: human platelets; assay: Human platelet aggregation in vitro by light transmission aggregometry; assay type: cell-based
From the text: It has been shown that using an anti-CD154 monoclonal therapeutic approach to interfere with the CD40-CD154 interaction there was efficacy in animal models, but in the clinical trial of one of the monoclonal antibodies there was binding to platelets resulting in emboli. Therefore, the clinical trials were halted (Kawai et al 2000, abstract). To determine if OPT101 has similar effects as the monoclonal antibody, an in vitro study was done with human platelets to determine if OPT101 would affect platelet aggregation, as measured by light transmission aggregometry. Platelet aggregation induced with adenosine diphosphate or collagen were not affected when treated with OPT101 at 0.1, 0.3, 3 or 30 μg/mL. […] Therefore, OPT101 had no impact on human platelet aggregation in vitro.

[10] = Character of infusion reactions in the animal studies; assay type: in vivo
From the text: There was clear difference between the infusion reactions seen in the rats and dogs, and IgE-mediated anaphylaxis or other antigen-dependent hypersensitivity. IgE/antigen-dependent degranulation of mast cells is associated with a sustained release of larger and more heterogeneously shaped granule structures, whereas peptide-activated mast cells rapidly secrete small and relatively spherical granule structures (Gaudenzio 2016). […] In addition, the infusion reactions were also elicited by a scrambled version of OPT101 (same amino acids but in a different sequence), showing the reaction was not OPT101-dependent.

[11] = Glucose tolerance and insulin sensitivity after KGYY6; assay type: in vivo, ApoE −/−mice
[12] = system: conventional CD4 T cells; assay: Intracellular IL-10 in conventional CD4 T cells ex-vivo at end of EAE experiment after KGYY6 treatment; parameters: species or system mice; conditions: draining lymph nodes (dLN); after 33 days; vs untreated animals; p=0.0145
From the text: FIG. 10 provides two graphs which show how KGYY-6 treatment alters IL-10 production by conventional CD4 T cells.
Intracellular cytokine expression profiles were examined in conventional CD4 T cells immediately ex-vivo at the end of the EAE experiment, after 33 days.

[13] = system: CD3+CD4+CD40+(Th40) splenic cells; assay: Overnight culture of Th40 splenic cells with KGYY6, inflammatory cytokines; assay type: cell-based, ApoE−/− mice; conditions: cultured overnight with varying concentrations of KGYY6; vs untreated cells
Experimental: CD3+CD4+CD40+(Th40) splenic cells were purified from ApoE−/− with cardiovascular disease. The cells were cultured overnight in the absence/presence of varying concentrations of KGYY6 peptide.

[14] = system: Th40 cells; assay: Intracellular TGF in Th40 cells from ApoE−/− mice treated with KGYY6; conditions: ApoE−/− mice with cardiovascular disease treated with KGYY6 vs not treated; ex-vivo flow cytometry
Experimental: Th40 cells were purified from ApoE−/−mice with cardiovascular disease as well as from ApoE−/−mice that were treated with KGYY6. Immediately ex-vivo, the cells were stained for CD3, CD4, and CD40 and intracellular TGF and analyzed by flow cytometry. Cells were gated on CD3 then CD4 and CD40 for Th40 cells then levels of TGF were assessed.

[15] = 12.5 mg/kg bolus IV, 1-hour post-treatment
[16] = 50 and 100 mg/kg IV injection, vs pretest values

Compound: NC(N)=NCCC[C@@H](N)C(=O)N[C@@H](CCCN=C(N)N)C(=O)N1CCC[C@H]1C(=O)N1C[C@H](O)C[C@H]1C(=O)NCC(=O)N[C@@H](Cc1cccs1)C(=O)N[C@@H](CO)C(=O)N1Cc2ccccc2C[C@@H]1C(=O)N1[C@H](C(=O)N[C@@H](CCCN=C(N)N)C(=O)O)C[C@@H]2CCCC[C@@H]21 [icatibant]
- infusion reaction [1]: causes a reaction due to histamine release that is quickly reversed after end of infusion

Compound: CSCC[C@H](NC(=O)[C@@H](NC(=O)[C@H](Cc1ccc(O)cc1)NC(=O)[C@H](Cc1ccc(O)cc1)NC(=O)CNC(=O)[C@H](CCCCN)NC(=O)[C@H](CCCCN)NC(=O)[C@H](C)NC(=O)[C@H](Cc1c[nH]c2ccccc12)NC(=O)[C@H](CCC(N)=O)NC(=O)[C@H](CC(C)C)NC(=O)[C@@H](N)C(C)C)[C@@H](C)O)C(=O)N[C@@H](CCCCN)C(=O)N[C@@H](CO)C(=O)N[C@@H](CC(N)=O)C(=O)O [OPT101, VLQWAKKGYYTMKSN]
- clinical observations or physiological changes ([2]; 0.3 mg/kg): no clinical observations or physiological changes
- blood pressure and heart rate ([2]; 100 mg/kg): decreases
- time for blood pressure and heart rate to return to normal after end of infusion ([2]; 100 mg/kg): ≤ 1 h
- serum levels of histamine ([2]; 100 mg/kg, 5 and 30 minutes after start of infusion): significantly elevated
- body weight, food consumption, body temperature, respiratory rate and coagulation ([2]; 0.3, 1 or 100 mg/kg, 30-minute IV infusion, single dose): no OPT101-related body weight, food consumption, body temperature, respiratory rate and coagulation changes
- histamine related clinical observations ([2]; 1 and 100 mg/kg, much more severe at 100 mg/kg): salivation, vomitus, incontinence, discolored skin, swelling and rash
- no observable effect level (NOEL) ([2]; single dose, 30-minute IV infusion): 0.3 mg/kg
- assessment of infusion reaction clinical signs ([3]; 10 mg/kg): non-adverse
- plasma drug levels versus dose ([3]; 8-week study, PK after first and last dose): increased with increasing dose
- infusion reactions, incidence ([3]; 10, 100, or 400 mg/kg/dose): in all treated animals
- tolerability ([3]; 10, 100, or 400 mg/kg/dose once a week for 8 weeks, 30-minute IV infusion): well tolerated
- assessment of infusion reaction clinical signs ([3]; 100 and 400 mg/kg): adverse
- NOAEL ([3]; dog, in vivo, dogs, infusion reaction, once weekly for 8 weeks, 30-minute IV infusion, read-out: no observable adverse effect level (NOAEL)): 10 mg/kg
- thromboemboli ([3]; dogs, 8-week toxicology study): no evidence of thromboemboli
- toxicity other than infusion reaction ([3]; dogs, up to highest dose of 400 mg/kg, once weekly for 8 weeks, 400 mg/kg): no other adverse effects
- drug accumulation ([3]; over the 8-week study): no marked drug accumulation
- tolerability ([4]; 10, 100 or 200 mg/kg/dose once a week for 8 weeks, 30-minute IV infusion): well tolerated and did not result in any adverse effects
- NOAEL ([4]; rat, in vivo, rats, once weekly for 8 weeks, 30-minute IV infusion, read-out: no observable adverse effect level (NOAEL)): 200 mg/kg
- thromboemboli ([4]; rats, 8-week toxicology study): no evidence of thromboemboli
- toxicity other than infusion reaction ([4]; rats, up to highest dose of 200 mg/kg, once weekly for 8 weeks, 200 mg/kg): no other adverse effects
- serum C3 levels (as measured by conversion to human SC5b-9) [5, 15]: no decreases
- serum IFN-γ, TNF-α, IL-10, IL-4, IL-5, IL-6, IL-10, or IL-13 levels [5, 15]: no changes
- serum histamine levels ([5]; 12.5 mg/kg bolus IV, 10-minutes post-treatment): increased significantly
- clinical observation ([5]; single bolus IV dose 12.5 mg/kg): consistent with a histamine reaction
- reverse bacterial mutation (Ames assay) [6]: negative
- mortality [7]: mortality of two rats
- tolerability ([7]; single dose): did not tolerate the treatment
- assessment of clinical chemistry effects ([8]; 100 mg/kg): adverse
- alanine aminotransferase, aspartate aminotransferase, alkaline phosphatase, γ-glutamyltransferase, urea, creatinine, calcium, phosphorus, total bilirubin, creatine kinase [8, 16]: notable increases
- potassium [8, 16]: decrease
- serum C5b-9 complement levels ([8]; 50 or 100 mg/kg): no increases
- decrease of fibrinogen (down to) ([8]; 50 or 100 mg/kg bolus IV): 32%
- increase of prothrombin time ([8]; 50 or 100 mg/kg bolus IV): 288%
- leukocyte count, erythrocyte and platelet counts ([8]; 50 or 100 mg/kg bolus IV): increases
- tolerability ([8]; 50 or 100 mg/kg bolus IV injection, single dose): not tolerated
- histopathology evaluation of liver and kidney ([8]; bolus IV): no liver or kidney lesions
- spontaneous platelet aggregation ([9]; OPT101 at 30 μg/mL): no spontaneous platelet aggregation
- Platelet aggregation induced with adenosine diphosphate or collagen ([9]; OPT101 at 0.1, 0.3, 3 or 30 μg/mL): not affected
- complement activation [10]: no evidence of complement activation
- duration of clinical signs and release of histamine [10]: very transient

Compound: YKNVKQMAYWLTGKS [scrambled version of OPT101, reference compound]
- infusion reactions [10]: also elicited

Compound: AKKGYY [KGYY6]
- insulin sensitivity ([11]; p<0.005): statistically significant improvement
- glucose tolerance ([11]; p<0.05): statistically significant improvement
- intracellular IL-10 in conventional CD4 T cells [12]: increase in intracellular IL-10
- inflammatory cytokine IFNγ [13]: varying degrees of reduction
- inflammatory cytokine IL-2 [13]: varying degrees of reduction
- inflammatory cytokine IL-17A [13]: varying degrees of reduction
- production of TGF (intracellular, Th40 cells) [14]: decrease production of TGF
